In brackets after ≈: the same amount, converted by molar mass.
How the values were obtained:
[1] = system: Streptococcus pneumoniae ATCC 33400; test: In-vitro antibacterial activity (MIC, broth microdilution); type: cell-based; conditions: ATCC33400
Description: (§1) Determination of the antibacterial activities was carried out on microtiter plates, in 200 µL (final volume) of Müeller-Hinton Broth (MHB), following EUCAST (European Committee on Antimicrobial Susceptibility testing)/CLSI (Clinical and Laboratory Standard Institute) recommended procedures, [25]. The compounds were solubilized in MHB, just before use. Inocula were prepared for each strain by resuspending isolated colonies from 18 h cultured plates. Equivalents of 0.5 Mac Farland turbidity standards (approximately 1×10^8 CFU mL^−1) were prepared in saline solution ([…]) and then diluted 200-fold in MBH.

[2] = system: Klebsiella pneumoniae ATCC 13883; test: as above; type: cell-based; conditions: ATCC13883
Description: as §1

[3] = system: Enterococcus faecium ATCC 19434; test: as above; type: cell-based; conditions: ATCC19434
Description: as §1

[4] = system: Micrococcus luteus ATCC 9341; test: as above; type: cell-based; conditions: ATCC9341
Description: as §1

[5] = system: Staphylococcus aureus ATCC 25923; test: as above; type: cell-based; conditions: ATCC25923
Description: as §1

[6] = system: Staphylococcus aureus ATCC 43300 (MRSA); test: as above; type: cell-based
Description: as §1

[7] = system: Streptococcus pneumoniae ATCC 49619; test: as above; type: cell-based; conditions: ATCC49619
Description: as §1

[8] = system: Pseudomonas aeruginosa ATCC 27853; test: as above; type: cell-based; conditions: ATCC27853
Description: as §1

[9] = system: Listeria monocytogenes ATCC 14780; test: as above; type: cell-based; conditions: ATCC14780
Description: as §1

[10] = system: Enterococcus faecalis ATCC 29212; test: as above; type: cell-based; conditions: ATCC29212
Description: as §1

[11] = system: Citrobacter freundii ATCC 8090; test: as above; type: cell-based; conditions: ATCC8090
Description: as §1

[12] = system: Escherichia coli ATCC 8739; test: as above; type: cell-based; conditions: ATCC8739
Description: as §1

[13] = system: Staphylococcus aureus mp 1 (inducible MRSA); test: as above; type: cell-based
Description: as §1

[14] = system: Listeria innocua ATCC 33090; test: as above; type: cell-based; conditions: ATCC33090
Description: as §1

[15] = system: Proteus mirabilis ATCC 29936; test: as above; type: cell-based; conditions: ATCC29936
Description: as §1

[16] = system: Enterococcus faecalis ATCC 7937; test: as above; type: cell-based; conditions: ATCC7937
Description: as §1

[17] = system: Staphylococcus epidermidis ATCC 12228; test: as above; type: cell-based; conditions: ATCC12228
Description: as §1

[18] = system: Enterococcus hirae ATCC 8790; test: as above; type: cell-based; conditions: ATCC8790
Description: as §1

[19] = system: Bacillus subtilis ATCC 6633; test: as above; type: cell-based; conditions: ATCC6633
Description: as §1

[20] = system: Streptococcus pneumoniae D39; test: as above; type: cell-based
Description: as §1

PBP5fm = PBP5fm (Enterococcus faecium, UniProt Q47759); test: PBP5fm enzymatic inhibition assay (fluorescein-labeled ampicillin, residual penicillin binding activity); type: biochemical, Enterococcus faecium D63r; conditions: 4 h; residual activity of the enzyme at 1 mM inhibitor; 0.01% Triton X-100; read-out: PBP5fm RA [%]
Description: (§2) PBP2a from Staphylococcus aureus ATCC 43300 and PBP5fm from Enterococcus faecium D63r were overproduced and purified as described previously, [18].
(§3) Each of the purified PBPs (2.5 µM) were first incubated with 1 mM potential inhibitor in 100 mM phosphate buffer, 0.01% Triton X-100[19], pH 7, for 4 h at 30°C. Then, 25 µM fluorescein-labeled ampicillin[20] was added to detect the residual penicillin binding activity (RA). The samples were further incubated for 30 min at 37°C in a total volume of 20 µL. Denaturation buffer was added (0.1 M Tris/HCl, pH 6.8, containing 25% glycerol, 2% SDS, 20% β-mercaptoethanol and 0.02% bromophenol blue) and the samples were heated to 100°C for 1 min. The samples were then loaded onto a 10% SDS-acrilamide gel (10×7 cm) and electrophoresis was performed for 45 min at 180 V (12 mA). Detection and quantification of the RAs were with Molecular Image FX equipment and Quantity One software (BioRad, Hercules, CA, USA). Three independent experiments were carried out for each inhibitor.

PBP2a = target: T1, PBP2a (Staphylococcus aureus, UniProt P07944); test: PBP2a enzymatic inhibition assay (fluorescein-labeled ampicillin, residual penicillin binding activity); type: biochemical, Staphylococcus aureus ATCC 43300; conditions: for remaining activity at 1000 µM: 4 h, residual activity of the enzyme at 1 mM inhibitor, 0.01% Triton X-100, mean of three experiments, read-out: PBP2a RA [%]; for IC50: in the presence of 0.01% Triton X-100
T1 construct: made in house
Description: as §2, §3

PBP2x 5204 = PBP2x 5204 (Streptococcus pneumoniae, UniProt P59676); test: PBP2x 5204 enzymatic inhibition assay (S2d hydrolysis, DTNB); type: biochemical, Streptococcus pneumoniae strain 5204; conditions: for PBP2x5204 RA [%]: 240 min
Description: PBP2x-5204 from Streptococcus pneumonia and N-benzoyl-D-alanyl-thioglycolate S2d[21], [22] were prepared as previously described. All assays with PBP2x 5204 were carried out in 96-well microtiter plates (Brand, Wertheim, Germany). PBP2x 5204 (0.6 µM) was incubated in the presence of the potential inhibitors in 10 mM sodium phosphate buffer (pH 7.0) containing 70 mM D-alanine and 0.01 mg/mL BSA, for 4 h at 25°C. This preincubation was used to also detect slow binding inhibitors. After the preincubation, the RA of PBP2x 5204 was determined. The initial rate of hydrolysis of 1 mM S2d in the presence of 1 mM DTNB was determined by monitoring the increase in absorbance at 412 nm (DTNB: ε[Δ ε] = […]) using a microplate absorbance reader (Power Wave X, Biotek Instruments, Winooski, U.S.A.). The rate of spontaneous hydrolysis of S2d in the presence of the potential inhibitors was also determined in the absence of PBP2x 5204. All of the assays were carried out in triplicate. The determination of the RA of PBP2x 5204 in the absence of inhibitors was carried out six times on each plate. A test compound was considered as an inhibitor if the RA was <80%. In this case, to reveal false positives, the assays were also carried out under the same conditions in the presence of 0.01% Triton X-100. As described in the literature, promiscuous inhibitors (false positives) are slow binding, noncompetitive inhibitors. To avoid detailed kinetic investigations, it is possible to identify such compounds by carrying out the assays in the presence of Triton X-100[14], [19]. Promiscuous inhibitors show no inhibition in the presence of Triton X-100. The IC50 values in the presence of Triton X-100 were determined if the RAs were <50%. (RA: ∼50%, IC50∼c, c: concentration of compound in the assay; RA >50%, IC50 > c). The RA was measured over a range of concentrations, from which the IC50 values were determined by non-linear regression analysis, using Sigma Plot (Systat software) and fitting the data to the equation y = y0+(a×b)/(b+x)[23].

[21] = residual activity of the enzyme at 1 mM inhibitor

T1 sequence (P07944 whole entry): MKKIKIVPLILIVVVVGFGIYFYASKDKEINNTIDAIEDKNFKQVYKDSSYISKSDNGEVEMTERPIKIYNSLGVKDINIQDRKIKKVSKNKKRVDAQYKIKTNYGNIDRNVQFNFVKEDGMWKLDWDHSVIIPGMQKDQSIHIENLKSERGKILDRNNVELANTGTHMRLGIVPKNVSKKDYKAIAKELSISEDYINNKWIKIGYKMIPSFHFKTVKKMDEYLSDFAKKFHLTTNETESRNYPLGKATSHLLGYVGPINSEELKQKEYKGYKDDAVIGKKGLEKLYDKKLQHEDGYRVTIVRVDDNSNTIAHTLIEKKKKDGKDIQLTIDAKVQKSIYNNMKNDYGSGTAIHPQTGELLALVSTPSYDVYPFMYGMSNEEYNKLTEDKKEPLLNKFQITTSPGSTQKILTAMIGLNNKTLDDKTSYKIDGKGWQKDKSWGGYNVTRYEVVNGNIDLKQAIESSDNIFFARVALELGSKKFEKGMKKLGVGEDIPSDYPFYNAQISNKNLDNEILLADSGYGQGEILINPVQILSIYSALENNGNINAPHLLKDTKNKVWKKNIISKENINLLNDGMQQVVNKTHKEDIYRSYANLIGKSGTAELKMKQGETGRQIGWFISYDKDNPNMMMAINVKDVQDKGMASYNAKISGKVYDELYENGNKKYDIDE
Sequence of PBP2x 5204 (P59676 49-750): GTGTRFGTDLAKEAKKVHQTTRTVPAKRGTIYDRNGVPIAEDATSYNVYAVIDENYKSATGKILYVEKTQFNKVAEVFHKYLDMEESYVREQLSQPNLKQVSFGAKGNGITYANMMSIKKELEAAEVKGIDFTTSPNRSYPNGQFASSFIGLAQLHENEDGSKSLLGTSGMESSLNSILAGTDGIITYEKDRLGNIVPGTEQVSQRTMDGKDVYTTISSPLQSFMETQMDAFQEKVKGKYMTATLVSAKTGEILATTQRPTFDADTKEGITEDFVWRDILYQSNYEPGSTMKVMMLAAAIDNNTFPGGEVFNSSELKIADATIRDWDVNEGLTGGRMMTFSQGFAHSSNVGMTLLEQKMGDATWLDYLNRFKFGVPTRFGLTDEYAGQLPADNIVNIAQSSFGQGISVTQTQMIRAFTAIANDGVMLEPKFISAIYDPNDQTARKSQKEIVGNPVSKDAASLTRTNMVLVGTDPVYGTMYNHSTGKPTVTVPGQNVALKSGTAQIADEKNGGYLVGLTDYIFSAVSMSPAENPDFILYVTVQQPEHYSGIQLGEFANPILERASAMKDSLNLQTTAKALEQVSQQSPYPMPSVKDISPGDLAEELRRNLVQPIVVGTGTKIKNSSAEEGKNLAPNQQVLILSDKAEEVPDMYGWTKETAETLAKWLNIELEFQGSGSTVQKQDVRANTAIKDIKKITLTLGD
Sequence of PBP5fm (Q47759 entry or part of it): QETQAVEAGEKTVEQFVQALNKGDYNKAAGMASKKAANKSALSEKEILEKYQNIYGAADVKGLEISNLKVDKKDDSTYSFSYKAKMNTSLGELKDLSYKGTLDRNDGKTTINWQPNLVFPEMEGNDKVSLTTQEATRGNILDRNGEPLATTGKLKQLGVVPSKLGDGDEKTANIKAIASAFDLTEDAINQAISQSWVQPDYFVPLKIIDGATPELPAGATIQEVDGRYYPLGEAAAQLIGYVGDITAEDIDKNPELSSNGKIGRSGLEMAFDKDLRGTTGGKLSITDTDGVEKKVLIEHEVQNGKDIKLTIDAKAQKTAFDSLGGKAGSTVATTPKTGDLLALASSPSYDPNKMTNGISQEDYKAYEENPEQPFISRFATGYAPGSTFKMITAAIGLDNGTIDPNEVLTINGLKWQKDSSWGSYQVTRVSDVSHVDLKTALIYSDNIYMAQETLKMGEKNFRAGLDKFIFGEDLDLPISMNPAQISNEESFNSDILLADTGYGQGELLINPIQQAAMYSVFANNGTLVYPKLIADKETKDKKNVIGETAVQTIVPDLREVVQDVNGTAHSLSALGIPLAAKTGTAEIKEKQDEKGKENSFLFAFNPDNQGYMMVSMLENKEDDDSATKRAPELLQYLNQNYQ

SMILES: CCCOc1ccc(C(=O)Nc2ccc(Br)cc2C(=O)O)cc1 [compound 6, 5-Bromo-2-(4-propoxybenzamido)benzoic acid]
- MIC [1]: 64 µg/mL (≈ 169 µM)
- MIC [2]: > 512 µg/mL
- MIC [3]: 256 µg/mL (≈ 677 µM)
- MIC [4]: 32 µg/mL (≈ 84.6 µM)
- MIC [5]: 16 µg/mL (≈ 42.3 µM)
- MIC [6]: 128 µg/mL (≈ 338 µM)
- MIC [7]: 32 µg/mL (≈ 84.6 µM)
- MIC [8]: > 512 µg/mL
- MIC [9]: 64 µg/mL (≈ 169 µM)
- MIC [10]: 32 µg/mL (≈ 84.6 µM)
- MIC [11]: > 512 µg/mL
- MIC [12]: > 512 µg/mL
- MIC [13]: 128 µg/mL (≈ 338 µM)
- MIC [14]: 64 µg/mL (≈ 169 µM)
- MIC [15]: > 512 µg/mL
- MIC [16]: 64 µg/mL (≈ 169 µM)
- MIC [17]: 16 µg/mL (≈ 42.3 µM)
- MIC [18]: 32 µg/mL (≈ 84.6 µM)
- MIC [19]: 128 µg/mL (≈ 338 µM)
- MIC [20]: 16 µg/mL (≈ 42.3 µM)
- activity at 1000 µM (PBP5fm): 68%
- remaining activity at 1000 µM (PBP2a): 0%
- IC50 (PBP2a): 210 µM
- PBP2x5204 RA [%] (PBP2x 5204; [21]): 41%

SMILES: CCCOc1ccc(C(=O)Nc2ccc(O)cc2C(=O)O)cc1 [compound 7, 5-Hydroxy-2-(4-propoxybenzamido)benzoic acid]
- activity at 1000 µM (PBP5fm): 72%
- remaining activity at 1000 µM (PBP2a): 74%
- PBP2x5204 RA [%] (PBP2x 5204; [21]): 65%

SMILES: CCCOc1ccc(C(=O)Nc2ccccc2C(=O)O)cc1 [compound 8, 2-(4-Propoxybenzamido)benzoic acid]
- activity at 1000 µM (PBP5fm): 74%
- remaining activity at 1000 µM (PBP2a): 60%
- PBP2x5204 RA [%] (PBP2x 5204; [21]): 103%

SMILES: CCCOc1cccc(C(=O)Nc2ccc(Br)cc2C(=O)O)c1 [compound 9, 5-Bromo-2-(3-propoxybenzamido)benzoic acid]
- MIC [1]: 1 µg/mL (≈ 2.64 µM)
- MIC [2]: > 512 µg/mL
- MIC [3]: 16 µg/mL (≈ 42.3 µM)
- MIC [4]: 16 µg/mL (≈ 42.3 µM)
- MIC [5]: 32 µg/mL (≈ 84.6 µM)
- MIC [6]: 32 µg/mL (≈ 84.6 µM)
- MIC [7]: 1 µg/mL (≈ 2.64 µM)
- MIC [8]: > 512 µg/mL
- MIC [9]: 16 µg/mL (≈ 42.3 µM)
- MIC [10]: 64 µg/mL (≈ 169 µM)
- MIC [11]: > 512 µg/mL
- MIC [12]: > 512 µg/mL
- MIC [13]: 32 µg/mL (≈ 84.6 µM)
- MIC [14]: 16 µg/mL (≈ 42.3 µM)
- MIC [15]: > 512 µg/mL
- MIC [16]: 64 µg/mL (≈ 169 µM)
- MIC [17]: 8 µg/mL (≈ 21.2 µM)
- MIC [18]: 16 µg/mL (≈ 42.3 µM)
- MIC [19]: 32 µg/mL (≈ 84.6 µM)
- MIC [20]: 1 µg/mL (≈ 2.64 µM)
- activity at 1000 µM (PBP5fm): 72%
- remaining activity at 1000 µM (PBP2a): 0%
- IC50 (PBP2a): 230 µM
- IC50 (PBP2x 5204; read-out: PBP2x5204 IC50, in the presence of 0.01% Triton X-100): 155 µM
- PBP2x5204 RA [%] (PBP2x 5204; residual activity of the enzyme at 500 µM inhibitor): 8%

SMILES: CCCOc1cccc(C(=O)Nc2ccc(C)cc2C(=O)O)c1 [compound 10, 5-Methyl-2-(3-propoxybenzamido)benzoic acid]
- MIC [1]: 2 µg/mL (≈ 6.38 µM)
- MIC [2]: > 512 µg/mL
- MIC [3]: 128 µg/mL (≈ 408 µM)
- MIC [4]: 256 µg/mL (≈ 817 µM)
- MIC [5]: 128 µg/mL (≈ 408 µM)
- MIC [6]: 256 µg/mL (≈ 817 µM)
- MIC [7]: 2 µg/mL (≈ 6.38 µM)
- MIC [8]: > 512 µg/mL
- MIC [9]: 32 µg/mL (≈ 102 µM)
- MIC [10]: 256 µg/mL (≈ 817 µM)
- MIC [11]: > 512 µg/mL
- MIC [12]: > 512 µg/mL
- MIC [13]: 256 µg/mL (≈ 817 µM)
- MIC [14]: 256 µg/mL (≈ 817 µM)
- MIC [15]: > 512 µg/mL
- MIC [16]: 256 µg/mL (≈ 817 µM)
- MIC [17]: 128 µg/mL (≈ 408 µM)
- MIC [18]: 128 µg/mL (≈ 408 µM)
- MIC [19]: 256 µg/mL (≈ 817 µM)
- MIC [20]: 2 µg/mL (≈ 6.38 µM)
- activity at 1000 µM (PBP5fm): 69%
- remaining activity at 1000 µM (PBP2a): 17%
- IC50 (PBP2a): 680 µM
- PBP2x5204 RA [%] (PBP2x 5204; [21]): 121%

SMILES: CCCOc1cccc(C(=O)Nc2ccc(O)cc2C(=O)O)c1 [compound 11, 5-Hydroxy-2-(3-propoxybenzamido)benzoic acid]
- activity at 1000 µM (PBP5fm): 61%
- remaining activity at 1000 µM (PBP2a): 70%
- PBP2x5204 RA [%] (PBP2x 5204; [21]): 118%

Reference: paper PMC3090393, “New Noncovalent Inhibitors of Penicillin-Binding Proteins from Penicillin-Resistant Bacteria” (PLoS ONE, 2011)
